Source: article PMC5480602 (Slas Discovery, 2017)

Tests used:
[1] = cited from earlier work
[2] = cited from earlier work; remark: listed apart in the source
α4β2 nAChR = α4β2 nAChR (Homo sapiens, UniProt P17787+P43681); experiment: cell-based
α3β4α5 nAChR = α3β4α5 nAChR (Homo sapiens, UniProt P30532+P30926+P32297); experiment: cell-based
[3] = read-out: plasma levels (Cmax); in patients; cited from earlier work
α3β4 nAChR = α3β4 nAChR (Homo sapiens, UniProt P30926+P32297); experiment: cell-based
Sequence of α3β4 nAChR (P32297 32-505): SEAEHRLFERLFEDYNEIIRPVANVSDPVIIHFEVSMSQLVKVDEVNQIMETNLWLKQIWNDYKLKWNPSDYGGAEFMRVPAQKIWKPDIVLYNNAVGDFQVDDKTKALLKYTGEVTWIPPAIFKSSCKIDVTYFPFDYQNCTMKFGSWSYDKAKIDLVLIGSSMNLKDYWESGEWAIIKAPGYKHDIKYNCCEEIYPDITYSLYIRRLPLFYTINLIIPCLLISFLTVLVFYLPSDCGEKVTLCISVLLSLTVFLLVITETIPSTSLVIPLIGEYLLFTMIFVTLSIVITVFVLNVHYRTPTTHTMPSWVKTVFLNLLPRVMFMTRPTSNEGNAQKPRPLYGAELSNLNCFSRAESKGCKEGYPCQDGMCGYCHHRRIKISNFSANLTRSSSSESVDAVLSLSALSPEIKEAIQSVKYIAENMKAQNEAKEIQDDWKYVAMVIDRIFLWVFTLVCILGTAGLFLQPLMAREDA
Sequence of α3β4 nAChR (P30926 22-498): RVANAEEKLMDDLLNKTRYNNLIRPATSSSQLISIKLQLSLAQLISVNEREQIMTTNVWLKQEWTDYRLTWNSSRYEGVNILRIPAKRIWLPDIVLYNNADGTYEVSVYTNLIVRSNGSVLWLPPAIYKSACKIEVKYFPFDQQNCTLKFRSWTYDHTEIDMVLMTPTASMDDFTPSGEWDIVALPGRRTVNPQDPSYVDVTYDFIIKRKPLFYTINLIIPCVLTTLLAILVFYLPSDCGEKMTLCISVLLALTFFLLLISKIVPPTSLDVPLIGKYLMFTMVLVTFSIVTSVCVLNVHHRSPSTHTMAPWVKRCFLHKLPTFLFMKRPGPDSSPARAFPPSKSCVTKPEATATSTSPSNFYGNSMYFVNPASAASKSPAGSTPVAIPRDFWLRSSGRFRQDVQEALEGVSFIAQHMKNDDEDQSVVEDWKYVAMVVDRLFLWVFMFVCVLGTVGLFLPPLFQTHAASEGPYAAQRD

Sequence of α4β2 nAChR (P43681 29-627 limits assumed): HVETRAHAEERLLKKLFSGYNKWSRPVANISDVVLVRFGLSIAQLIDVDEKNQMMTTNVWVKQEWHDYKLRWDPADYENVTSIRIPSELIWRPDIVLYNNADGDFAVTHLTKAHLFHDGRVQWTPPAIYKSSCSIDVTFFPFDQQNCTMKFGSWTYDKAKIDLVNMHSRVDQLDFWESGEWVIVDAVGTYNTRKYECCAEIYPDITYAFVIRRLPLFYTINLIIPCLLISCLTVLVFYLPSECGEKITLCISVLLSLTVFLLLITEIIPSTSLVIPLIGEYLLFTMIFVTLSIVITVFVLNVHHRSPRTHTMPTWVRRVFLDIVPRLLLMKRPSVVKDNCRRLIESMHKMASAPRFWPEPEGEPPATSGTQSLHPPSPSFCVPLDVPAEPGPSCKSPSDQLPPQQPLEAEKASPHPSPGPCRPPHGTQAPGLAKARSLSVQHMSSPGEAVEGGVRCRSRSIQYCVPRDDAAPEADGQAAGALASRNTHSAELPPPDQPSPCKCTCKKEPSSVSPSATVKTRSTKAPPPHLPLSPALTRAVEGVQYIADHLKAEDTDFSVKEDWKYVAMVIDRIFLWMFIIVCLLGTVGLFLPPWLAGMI
Sequence of α4β2 nAChR (P17787 26-502): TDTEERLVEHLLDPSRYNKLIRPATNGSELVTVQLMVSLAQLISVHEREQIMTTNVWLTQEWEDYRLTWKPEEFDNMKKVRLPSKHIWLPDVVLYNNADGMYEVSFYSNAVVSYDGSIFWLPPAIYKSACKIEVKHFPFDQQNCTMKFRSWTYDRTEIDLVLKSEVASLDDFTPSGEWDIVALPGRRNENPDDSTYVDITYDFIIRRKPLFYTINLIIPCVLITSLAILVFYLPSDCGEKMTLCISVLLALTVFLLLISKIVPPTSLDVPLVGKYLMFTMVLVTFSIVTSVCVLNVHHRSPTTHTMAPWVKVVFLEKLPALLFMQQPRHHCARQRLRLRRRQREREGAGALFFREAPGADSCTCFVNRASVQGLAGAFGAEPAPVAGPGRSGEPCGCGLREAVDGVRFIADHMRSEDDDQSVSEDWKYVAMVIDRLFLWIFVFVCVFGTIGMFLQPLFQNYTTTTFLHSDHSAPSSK
Sequence of α3β4α5 nAChR (P32297 32-505): as the sequence (P32297 32-505) above
Sequence of α3β4α5 nAChR (P30926 22-498): as the sequence (P30926 22-498) above
Sequence of α3β4α5 nAChR (P30532 23-468): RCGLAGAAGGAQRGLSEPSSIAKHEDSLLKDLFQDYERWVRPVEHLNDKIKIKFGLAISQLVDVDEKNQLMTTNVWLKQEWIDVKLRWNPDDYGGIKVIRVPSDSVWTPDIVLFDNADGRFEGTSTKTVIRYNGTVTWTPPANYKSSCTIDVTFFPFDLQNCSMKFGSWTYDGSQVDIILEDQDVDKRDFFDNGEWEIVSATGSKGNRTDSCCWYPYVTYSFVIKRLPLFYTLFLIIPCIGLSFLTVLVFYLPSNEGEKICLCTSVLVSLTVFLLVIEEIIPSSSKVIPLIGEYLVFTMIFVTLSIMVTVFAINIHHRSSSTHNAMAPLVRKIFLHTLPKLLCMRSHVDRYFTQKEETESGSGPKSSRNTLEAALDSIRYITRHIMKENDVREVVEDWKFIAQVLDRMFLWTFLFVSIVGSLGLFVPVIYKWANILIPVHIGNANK

SMILES	efficiency in crossing the blood-brain barrier [1]	plasma concentrations [2]	IC50 (α4β2 nAChR)	IC50 (α3β4α5 nAChR)	Cmax [3]	efficiency of crossing the blood-brain barrier [1]	IC50 (α3β4 nAChR)
N=C(N)c1ccc(OCCCCCOc2ccc(C(=N)N)cc2)cc1 [pentamidine]	~ 0.04%	~ 1.8 µM	–	–	–	–	–
NC1=NCC2c3ccccc3Cc3ccccc3N12 (stereo not shown) [epinastine]	–	–	≥ 1000 nM	≥ 1000 nM	~100 nM	~ 10%	≥ 1000 nM
